Measurements as given in patent US20140094465A1, “Compounds as S-Nitrosoglutathione Reductase Inhibitors” (N30 PHARMACEUTICALS, INC., priority 2011, published 2014).
pIC50: −log10 of the molar value.

Key:
[1] = biological target: T1, S-nitrosoglutathione reductase (GSNOR) (Homo sapiens, UniProt P11766); assay: GSNOR assay (inhibition of GSNOR activity, NADH absorbance at 340 nm); assay type: biochemical; conditions: GSNOR inhibitor activity, Tables 1-6; read-out: IC50 range
T1 construct: made in house; host or cells: E. coli
T1 sequence (P11766 whole entry): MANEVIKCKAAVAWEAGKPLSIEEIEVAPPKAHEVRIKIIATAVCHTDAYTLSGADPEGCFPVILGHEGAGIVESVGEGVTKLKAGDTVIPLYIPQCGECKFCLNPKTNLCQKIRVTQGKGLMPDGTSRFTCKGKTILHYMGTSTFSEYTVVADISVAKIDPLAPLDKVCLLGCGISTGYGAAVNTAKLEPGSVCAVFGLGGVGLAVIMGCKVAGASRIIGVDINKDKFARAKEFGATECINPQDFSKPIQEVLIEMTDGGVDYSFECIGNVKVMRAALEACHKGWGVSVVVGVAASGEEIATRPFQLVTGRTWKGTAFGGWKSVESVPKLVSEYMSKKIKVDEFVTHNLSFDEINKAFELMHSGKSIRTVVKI
In short: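 Recombinant GSNOR purified from E. coli, tag removed. Final conditions: 100 mM NaPO4 pH 7.4, 0.240 mM GSNO, 0.300 mM NADH, 0.5 μg/mL enzyme, 1% DMSO; NADH loss followed as 340 nm absorbance change over 3 min at 25 °C. Compounds 100–0.003 μM, triplicate; IC50 by curve analysis.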

[2] = test system: ovalbumin (OVA)-induced asthma; assay: Mouse model of ovalbumin (OVA)-induced asthma (Penh, eosinophil infiltrate in BALF); assay type: in vivo; conditions: for decrease of eosinophil infiltration in BAL: three oral doses of 10 mg/kg at 48 h, 24 h, and 1 h prior to assessment
Description: A mouse model of ovalbumin (OVA)-induced asthma was used to screen GSNOR inhibitors for efficacy against methacholine (MCh)-induced bronchoconstriction/airway hyper-responsiveness. This is a widely used and well characterized model that presents with an acute, allergic asthma phenotype with similarities to human asthma. Efficacy of GSNOR inhibitors was assessed using a protocol in which GSNOR inhibitors were administered after OVA sensitization and airway challenge, and prior to challenge with MCh. Bronchoconstriction in response to challenge with increasing doses of MCh was assessed using whole body plethysmography (Penh; Buxco). The amount of eosinophil infiltrate into the bronchoaveolar lavage fluid (BALF) was also determined as a measure of lung inflammation. The effects of GSNOR inhibitors were compared to vehicles and to Combivent (inhaled; IH) as the positive control.
OVA (500 μg/ml) in PBS was mixed with equal volumes of 10% (w/v) aluminum potassium sulfate in distilled water and incubated for 60 min. at room temperature after adjustment to pH 6.5 using 10 N NaOH. After centrifugation at 750×g for 5 min, the OVA/alum pellet was resuspended to the original volume in distilled water. Mice received an intraperitoneal (IP) injection of 100 μg OVA (0.2 mL of 500 μg/mL in normal saline) complexed with alum on day 0. Mice were anesthetized by IP injection of a 0.2-mL mixture of ketamine and xylazine (0.44 and 6.3 mg/mL, respectively) in normal saline and were placed on a board in the supine position. Two hundred fifty micrograms (100 μl of a 2.5 mg/ml) of OVA (on day 8) and 125 μg (50 μl of 2.5 mg/ml) OVA (on days 15, 18, and 21) were placed on the back of the tongue of each animal.
In vivo airway responsiveness to methacholine was measured 24 h after the last OVA challenge in conscious, freely moving, spontaneously breathing mice with whole body plethysmography using a Buxco chamber (Wilmington, N.C.). Mice were challenged with aerosolized saline or increasing doses of methacholine (5, 20, and 50 mg/mL) generated by an ultrasonic nebulizer for 2 min. The degree of bronchoconstriction was expressed as enhanced pause (Penh), a calculated dimensionless value, which correlates with the measurement of airway resistance, impedance, and intrapleural pressure in the same mouse. Penh readings were taken and averaged for 4 min. after each nebulization challenge. Penh is calculated as follows: Penh=[(Te/Tr−1)×(PEF/PIF)], where Te is expiration time, Tr is relaxation time, PEF is peak expiratory flow, and PIF is peak inspiratory flow×0.67 coefficient. The time for the box pressure to change from a maximum to a user-defined percentage of the maximum represents the relaxation time. The Tr measurement begins at the maximum box pressure and ends at 40%.
After measurement of airway hyper-reactivity, the mice were exsanguinated by cardiac puncture, and then BALF was collected from either both lungs or from the right lung after tying off the left lung at the mainstem bronchus. Total BALF cells were counted from a 0.05 mL aliquot, and the remaining fluid was centrifuged at 200×g for 10 min at 4° C. Cell pellets were resuspended in saline containing 10% BSA with smears made on glass slides. Eosinophils were stained for 5 min. with 0.05% aqueous eosin and 5% acetone in distilled water, rinsed with distilled water, and counterstained with 0.07% methylene blue. Alternatively, eosinophils and other leukocytes were stained with DiffQuik.
GSNOR inhibitors were reconstituted in phosphate buffered saline (PBS), pH 7.4, or 0.5% w/v carboxy methylcellulose at concentrations ranging from 0.00005 to 3 mg/mL. GSNOR inhibitors were administered to mice (10 mL/kg) as a single dose or multiple dose either intravenously (IV) or orally via gavage. Dosing was performed from 30 min. to 72 h prior to MCh challenge. Effects of GSNOR inhibitors were compared to vehicle dosed in the same manner.
Combivent was used as the positive control in all studies. […]

[3] = single oral dose of 10 mg/kg at 24 h prior to assessment

O=C(O)c1ccc(-c2ccc3cc(O)ccc3c2)c(F)c1 [III-2]
pIC50 [1]: > 7.00 | decrease of eosinophil infiltration in BAL [2]: 44 % of vehicle control

O=c1c(-c2ccc(-c3nnn[nH]3)cc2)c(C(F)(F)F)oc2cc(O)ccc12 [IV-23]
pIC50 [1]: > 7.00 | decrease of AUC for Penh ([2]; single IV dose of 10 mg/kg at 24 h prior to assessment): 39 % of vehicle control

O=c1c2ccc(O)cc2oc(C(F)(F)F)c1[C@H]1CC[C@H](C(=O)O)CC1 [IV-25]
pIC50 [1]: > 7.00 | decrease of AUC for Penh [2, 3]: 43 % of vehicle control | decrease of eosinophil infiltration into BALF [2, 3]: 42 % of vehicle control | decrease of eosinophil infiltration in BAL [2]: 12 % of vehicle control

O=c1[nH]c(-c2ccc(-c3c(C(F)(F)F)oc4cc(O)ccc4c3=O)cc2)no1 [IV-31]
pIC50 [1]: > 7.00 | decrease of AUC for Penh [2, 3]: 18 % of vehicle control | decrease of eosinophil infiltration into BALF [2, 3]: 82 % of vehicle control

O=C(O)c1ccc(-c2c(C(F)(F)F)oc3cc(O)ccc3c2=O)c(F)c1 [IV-38]
pIC50 [1]: > 7.00 | decrease of eosinophil infiltration in BAL [2]: 36 % of vehicle control
